From patent US7872014B2, “Anaplastic lymphoma kinase modulators and methods of use” (Exelixis, Inc., priority 2003, dated 2011) come the findings set out here.

pIC50: −log10 of the molar value.

T1 sequence (Q9UM73 1098-1410): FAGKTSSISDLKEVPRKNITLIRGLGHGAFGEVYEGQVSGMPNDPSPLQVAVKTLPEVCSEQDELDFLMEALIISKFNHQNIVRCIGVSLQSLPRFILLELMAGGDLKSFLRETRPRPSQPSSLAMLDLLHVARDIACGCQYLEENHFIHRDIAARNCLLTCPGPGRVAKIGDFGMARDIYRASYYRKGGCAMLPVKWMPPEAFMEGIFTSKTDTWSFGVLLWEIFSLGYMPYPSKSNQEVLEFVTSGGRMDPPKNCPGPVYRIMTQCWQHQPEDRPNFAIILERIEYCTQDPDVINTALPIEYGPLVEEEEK

The experiment has as its target T1, ALK (baculovirus expressed human ALK kinase domain F1098-K1410) (Homo sapiens, UniProt Q9UM73).
T1 construct: baculovirus expressed human ALK kinase domain F1098-K1410; made in house
Briefly: Luciferase-Coupled Chemiluminescent Kinase assay (LCCA), ALK biochemical activity. Conditions: inhibition of ALK; mean values; 1 μM ATP, 4 μM poly-AEKY, 12 nM ALK, 2 hours ambient temperature. Here is the method: ALK biochemical activity was assessed using a Luciferase-Coupled Chemiluminescent Kinase assay (LCCA) format in which kinase activity was measured as the percent ATP remaining following the kinase reaction. ATP remaining after the kinase reaction was detected by luciferase-luciferin-coupled chemiluminescence.
The reaction was initiated by mixing test compounds, 1 μM ATP, 4 μM poly-AEKY and 12 nM ALK (baculovirus expressed human ALK kinase domain F1098-K1410) in a 20 μL assay buffer ([…] pH 7.5, 10 mM MgCl2, 0.02% Triton X-100, 100 mM DTT, 2 mM MnCl2). The mixture was incubated at ambient temperature for 2 hours after which 20 μL luciferase-luciferin mix was added and the chemiluminescent signal read using a Wallac Victor^2 reader. The luciferase-luciferin mix consists of 50 mM HEPES, pH 7.8, 8.5 μg/mL oxalic acid (pH 7.8), 5 (or 50) mM DTT, 0.4% Triton X-100, 0.25 mg/mL coenzyme A, 63 μM AMP, 28 μg/mL luciferin and 40,000 units of light/mL luciferase.
Consumption of ATP by ALK can thus be quantified and utilized as a measure of inhibition of ALK activity by compounds described herein. By employing serial dilutions of compounds to be tested, the ability of test compounds to inhibit ALK activity can be determined.
As for `COc1cc2c(-c3ccc(O)cc3)nc3[nH]nc(C)c3c2cc1OCC1CCN(C)CC1` [Example 65, 4-(1-methyl-7-(methyloxy)-8-{[(1-methylpiperidin-4-yl)methyl]oxy}-3H-pyrazolo[3,4-c]isoquinolin-5-yl)phenol], the negative logarithm of the IC50 (pIC50) (usually the IC50 on a negative log10 scale, so that one unit is a factor of ten) was ≥ 7.00.

With `COc1cc2c(cc1C)c(-c1ccc(O)cc1)nc1[nH]nc(C)c12` [Example 66, 4-[1,7-dimethyl-8-(methyloxy)-3H-pyrazolo[3,4-c]isoquinolin-5-yl]phenol], the negative-log IC50 (pIC50) was ≥ 7.00.

Take `COc1cc2c(-c3ccc(O)cc3)nc3[nH]nc(C4CCN(C(=O)OC(C)(C)C)CC4)c3c2cc1OC` [Example 67, 1,1-dimethylethyl 4-[5-(4-hydroxyphenyl)-7,8-bis(methyloxy)-3H-pyrazolo[3,4-c]isoquinolin-1-yl]piperidine-1-carboxylate]: the pIC50 is 6.00 to 7.00.

As for `COc1ccc2c(-c3ccc(O)c(Cl)c3)nc3[nH]nc(C)c3c2c1OC` [Example 69, 2-chloro-4-[1-methyl-8,9-bis(methyloxy)-3H-pyrazolo[3,4-c]isoquinolin-5-yl]phenol], the pIC50 was ≥ 7.00.

Regarding `COc1ccc2c(-c3ccc(O)c(F)c3)nc3[nH]nc(C)c3c2c1OC` [Example 70, 2-fluoro-4-[1-methyl-8,9-bis(methyloxy)-3H-pyrazolo[3,4-c]isoquinolin-5-yl]phenol], the pIC50 is ≥ 7.00.

Take `COc1ccc2c(-c3ccc(O)c(C)c3)nc3[nH]nc(C)c3c2c1OC` [Example 71, 2-methyl-4-[1-methyl-8,9-bis(methyloxy)-3H-pyrazolo[3,4-c]isoquinolin-5-yl]phenol]: the negative logarithm of the IC50 (pIC50) is ≥ 7.00.

Turning to `COc1ccc2c(-c3ccc(O)c(Br)c3)nc3[nH]nc(C)c3c2c1OC` [Example 72, 2-bromo-4-[1-methyl-8,9-bis(methyloxy)-3H-pyrazolo[3,4-c]isoquinolin-5-yl]phenol], the pIC50 was ≥ 7.00.

As for `COc1cc2c(-c3ccc(O)c(OC(F)F)c3)nc3[nH]nc(C)c3c2cc1OC` [Example 76, 2-[(difluoromethyl)oxy]-4-[1-methyl-7,8-bis(methyloxy)-3H-pyrazolo[3,4-c]isoquinolin-5-yl]phenol], the pIC50 was 5.70 to 6.00.

Turning to `COc1ccc2c(-c3ccc(O)cc3)nc3[nH]nc(C)c3c2c1C` [Example 78, 4-[1,9-dimethyl-8-(methyloxy)-3H-pyrazolo[3,4-c]isoquinolin-5-yl]phenol], the pIC50 was ≥ 7.00.

`COc1cc(F)c2c(-c3ccc(O)cc3)nc3[nH]nc(C)c3c2c1F` [Example 79, 4-[6,9-difluoro-1-methyl-8-(methyloxy)-3H-pyrazolo[3,4-c]isoquinolin-5-yl]phenol]: the pIC50 is ≥ 7.00.

For `COc1ccc2c(-c3ccc(O)c(Br)c3)nc3[nH]nc(C)c3c2c1OCCN1CCOCC1` [Example 80, 2-bromo-4-{1-methyl-8-(methyloxy)-9-[(2-morpholin-4-ylethyl)oxy]-3H-pyrazolo[3,4-c]isoquinolin-5-yl}phenol], the pIC50 was 6.00 to 7.00.

`COc1ccc2c(-c3ccc(O)c(Cl)c3)nc3[nH]nc(C)c3c2c1OCCN1CCOCC1` [Example 81, 2-chloro-4-{1-methyl-8-(methyloxy)-9-[(2-morpholin-4-ylethyl)oxy]-3H-pyrazolo[3,4-c]isoquinolin-5-yl}phenol] showed a pIC50 of 6.00 to 7.00.

As to `COc1cc2c(-c3ccc(O)cc3)nc3[nH]nc(CNCc4ccccc4)c3c2cc1OC` [Example 82, 4-(7,8-bis(methyloxy)-1-{[(phenylmethyl)amino]methyl}-3H-pyrazolo[3,4-c]isoquinolin-5-yl)phenol], the pIC50 was 6.00 to 7.00.

`COc1cc2c(-c3cc(C)c(O)cc3C)nc3[nH]nc(C)c3c2cc1OC` [Example 83, 2,5-dimethyl-4-[1-methyl-7,8-bis(methyloxy)-3H-pyrazolo[3,4-c]isoquinolin-5-yl]phenol]: the pIC50 was 6.00 to 7.00.

Regarding `COc1cc2c(-c3cc(Cl)c(O)cc3Cl)nc3[nH]nc(C)c3c2cc1OC` [Example 85, 2,5-dichloro-4-[1-methyl-7,8-bis(methyloxy)-3H-pyrazolo[3,4-c]isoquinolin-5-yl]phenol], the negative logarithm of the IC50 (pIC50) was ≥ 7.00.

Regarding `COc1ccc2c(-c3ccc(O)c(Br)c3)nc3[nH]nc(C)c3c2c1OCC1CCN(C)CC1` [Example 87, 2-bromo-4-(1-methyl-8-(methyloxy)-9-{[(1-methylpiperidin-4-yl)methyl]oxy}-3H-pyrazolo[3,4-c]isoquinolin-5-yl)phenol], the pIC50 was ≥ 7.00.

As to `COc1cc2c(-c3ccc(O)c(Cl)c3)nc3[nH]nc(C)c3c2cc1OCC1CCN(C)CC1` [Example 88, 2-chloro-4-(1-methyl-7-(methyloxy)-8-{[(1-methylpiperidin-4-yl)methyl]oxy}-3H-pyrazolo[3,4-c]isoquinolin-5-yl)phenol], the pIC50 is ≥ 7.00.

Consider `COc1ccc2c(-c3ccc(O)cc3)nc3[nH]nc(C)c3c2c1F` [Example 89, 4-[9-fluoro-1-methyl-8-(methyloxy)-3H-pyrazolo[3,4-c]isoquinolin-5-yl]phenol], for which the pIC50 was ≥ 7.00.

Regarding `COCCOc1c(OC)ccc2c(-c3ccc(O)cc3)nc3[nH]nc(C)c3c12` [Example 90, 4-(1-methyl-8-(methyloxy)-9-{[2-(methyloxy)ethyl]oxy}-3H-pyrazolo[3,4-c]isoquinolin-5-yl)phenol], the pIC50 was ≥ 7.00.

Regarding `COc1ccc2c(-c3ccc(O)c(Cl)c3)nc3[nH]nc(C)c3c2c1OCC1CCN(C)CC1` [Example 91, 2-chloro-4-(1-methyl-8-(methyloxy)-9-{[(1-methylpiperidin-4-yl)methyl]oxy}-3H-pyrazolo[3,4-c]isoquinolin-5-yl)phenol], the negative-log IC50 (pIC50) was ≥ 7.00.

As to `COc1cc2c(c(-c3ccc(O)cc3)nc3[nH]nc(C)c32)c(Br)c1C` [Example 92, 4-[6-bromo-1,7-dimethyl-8-(methyloxy)-3H-pyrazolo[3,4-c]isoquinolin-5-yl]phenol], the pIC50 was ≥ 7.00.

On to `COc1cc2c(c(-c3ccc(O)cc3)nc3[nH]nc(C)c32)c(F)c1OC` [Example 93, 4-[6-fluoro-1-methyl-7,8-bis(methyloxy)-3H-pyrazolo[3,4-c]isoquinolin-5-yl]phenol], for which the pIC50 was ≥ 7.00.

As to `COc1c(C)cc2c(-c3ccc(O)cc3)nc3[nH]nc(C)c3c2c1Cl` [Example 94, 4-[9-chloro-1,7-dimethyl-8-(methyloxy)-3H-pyrazolo[3,4-c]isoquinolin-5-yl]phenol], the pIC50 was ≥ 7.00.

With `CCN1CCC(COc2cc3c(cc2OC)c(-c2ccc(O)c(Cl)c2)nc2[nH]nc(C)c23)CC1` [Example 95, 2-chloro-4-[8-{[(1-ethylpiperidin-4-yl)methyl]oxy}-1-methyl-7-(methyloxy)-3H-pyrazolo[3,4-c]isoquinolin-5-yl]phenol], the pIC50 was ≥ 7.00.

With `COc1cc2c(-c3ccc(O)cc3Cl)nc3[nH]nc(C)c3c2cc1OC` [Example 96, 3-chloro-4-[1-methyl-7,8-bis(methyloxy)-3H-pyrazolo[3,4-c]isoquinolin-5-yl]phenol], the negative logarithm of the IC50 (pIC50) is ≥ 7.00.

Consider `COCCOc1ccc2c(-c3ccc(O)cc3)nc3[nH]nc(C)c3c2c1OCCOC` [Example 97, 4-(1-methyl-8,9-bis{[2-(methyloxy)ethyl]oxy}-3H-pyrazolo[3,4-c]isoquinolin-5-yl)phenol], for which the pIC50 was ≥ 7.00.

In the case of `Cc1n[nH]c2nc(-c3ccc(O)cc3)c3ccccc3c12` [Example 98, 4-(1-methyl-3H-pyrazolo[3,4-c]isoquinolin-5-yl)phenol], the pIC50 was ≥ 7.00.

As for `Cc1n[nH]c2nc(-c3ccc(O)c(Cl)c3)c3ccccc3c12` [Example 99, 2-chloro-4-(1-methyl-3H-pyrazolo[3,4-c]isoquinolin-5-yl)phenol], the pIC50 was ≥ 7.00.

With `Cc1n[nH]c2nc(-c3ccc(O)c(Br)c3)c3ccccc3c12` [Example 100, 2-bromo-4-(1-methyl-3H-pyrazolo[3,4-c]isoquinolin-5-yl)phenol], the pIC50 is ≥ 7.00.

Take `COc1cc2c(cc1C)c(-c1ccc(O)c(Cl)c1)nc1[nH]nc(C)c12` [Example 101, 2-chloro-4-[1,7-dimethyl-8-(methyloxy)-3H-pyrazolo[3,4-c]isoquinolin-5-yl]phenol]: the pIC50 is ≥ 7.00.

On to `COc1cc2c(cc1C)c(-c1ccc(O)c(Br)c1)nc1[nH]nc(C)c12` [Example 102, 2-bromo-4-[1,7-dimethyl-8-(methyloxy)-3H-pyrazolo[3,4-c]isoquinolin-5-yl]phenol], for which the pIC50 is ≥ 7.00.

Consider `COc1cc2c(-c3ccc(O)c(Cl)c3)nc3[nH]nc(C)c3c2cc1OCC1CCN(C(C)C)CC1` [Example 103, 2-chloro-4-[1-methyl-8-({[1-(1-methylethyl)piperidin-4-yl]methyl}oxy)-7-(methyloxy)-3H-pyrazolo[3,4-c]isoquinolin-5-yl]phenol], for which the pIC50 is ≥ 7.00.

On to `COc1ccc2c(-c3ccc(O)cc3)nc3[nH]nc(C)c3c2c1Br` [Example 104, 4-[9-bromo-1-methyl-8-(methyloxy)-3H-pyrazolo[3,4-c]isoquinolin-5-yl]phenol], for which the pIC50 is ≥ 7.00.

`COc1c(Cl)cc2c(-c3ccc(O)cc3)nc3[nH]nc(C)c3c2c1F` [Example 105, 4-[7-chloro-9-fluoro-1-methyl-8-(methyloxy)-3H-pyrazolo[3,4-c]isoquinolin-5-yl]phenol] had a negative-log IC50 (pIC50) of 6.00 to 7.00.
